Laboratory results as given in patent publication US6495133B1, “Gliocladium roseum strains useful for the control of fungal pathogens in plants” (priority 1998, dated 2002).

Legend:
Rhizoctonia solani = test: Control of rhizoctonia root rot, growth room experiments; format: in vivo
field pea = test: Effect of seeding dates on efficacy of seed treatment, field experiments; format: in vivo; as to Yield: unit not given here
[1] = Brussel Sprouts (cv. Long Island)
[2] = Cauliflower (cv. Early Snowball)
[3] = Egg Plant (cv. Early Long Purple)
[4] = Optimum seeding, 1995, AC Tamor
[5] = Optimum seeding, 1996, AC Tamor

## CN(C)C(=S)SSC(=S)N(C)C [Thiram, thiram]
Rhizoctonia solani; Broccoli (cv. Green Sprouting)
  Dry wt.: 0.01 a g/plant
  Emergence: 34.0 a %
  Fresh wt.: 0.1 a g/plant
  Root/foot rot severity: 5.1 ab 0-9
Rhizoctonia solani; [1]
  Dry wt.: 0.02 a g/plant
  Emergence: 19.5 b %
  Fresh wt.: 0.2 ab g/plant
  Root/foot rot severity: 2.8 a 0-9
Rhizoctonia solani; Cabbage (cv. Golden Acre)
  Dry wt.: 0.01 a g/plant
  Emergence: 59.5 a %
  Fresh wt.: 0.2 a g/plant
  Root/foot rot severity: 2.9 b 0-9
Rhizoctonia solani; [2]
  Dry wt.: 0.01 a g/plant
  Emergence: 11.5 b %
  Fresh wt.: 0.1 a g/plant
  Root/foot rot severity: 4.0 a 0-9
Rhizoctonia solani; Cucumber (cv. Imp. Long Green)
  Dry wt.: 0.06 a g/plant
  Emergence: 49.0 b %
  Fresh wt.: 0.5 a g/plant
  Root/foot rot severity: 2.2 b 0-9
Rhizoctonia solani; [3]
  Dry wt.: 0.01 a g/plant
  Emergence: 79.3 a %
  Fresh wt.: 0.1 a g/plant
  Root/foot rot severity: 1.9 a 0-9
Rhizoctonia solani; Field pea (cv. Radley)
  Dry wt.: 0.27 a g/plant
  Emergence: 55.6 a %
  Fresh wt.: 2.4 a g/plant
  Root/foot rot severity: 3.4 a 0-9
Rhizoctonia solani; Garden Pea (cv. Green Arrow)
  Dry wt.: 0.15 a g/plant
  Emergence: 89.2 a %
  Fresh wt.: 1.3 a g/plant
  Root/foot rot severity: 2.1 b 0-9
Rhizoctonia solani; Marigold (cv. Lemondrop)
  Dry wt.: 0.06 a g/plant
  Emergence: 75.2 a %
  Fresh wt.: 0.5 a g/plant
  Root/foot rot severity: 2.1 a 0-9
Rhizoctonia solani; Pepper (cv. California Wonder)
  Dry wt.: 0.01 a g/plant
  Emergence: 70.5 b %
  Fresh wt.: 0.1 a g/plant
  Root/foot rot severity: 1.3 a 0-9
Rhizoctonia solani; Sugar beet (cv. US H2O)
  Dry wt.: 0.29 a g/plant
  Emergence: 57.5 a %
  Fresh wt.: 4.4 a g/plant
  Root/foot rot severity: 1.6 b 0-9
Rhizoctonia solani; Table beet (cv. Ruby Queen)
  Dry wt.: 0.01 a g/plant
  Emergence: 78.5 a %
  Fresh wt.: 0.1 a g/plant
  Root/foot rot severity: 2.3 b 0-9
Rhizoctonia solani; Tomato (cv. Bush Beefsteak)
  Dry wt.: 0.01 a g/plant
  Emergence: 87.8 a %
  Fresh wt.: 0.1 a g/plant
  Root/foot rot severity: 1.5 a 0-9
Field pea; Early seeding, 1995, AC Tamor
  Emergence: 66.7 a
  Yield: 4934 a
Field pea; Early seeding, 1995, Radley
  Emergence: 72.4 a
  Yield: 4566 a
Field pea; Early seeding, 1996, AC Tamor
  Emergence: 81.6 a
  Yield: 2069 b
Field pea; Early seeding, 1996, Radley
  Emergence: 79.5 a
  Yield: 1295 a
Field pea; Late seeding, 1995, AC Tamor
  Emergence: 35.8 b
  Yield: 2454 a
Field pea; Late seeding, 1995, Radley
  Emergence: 55.0 a
  Yield: 3235 a
Field pea; Late seeding, 1996, AC Tamor
  Emergence: 87.2 a
  Yield: 2857 a
Field pea; Late seeding, 1996, Radley
  Emergence: 84.7 a
  Yield: 1706 a
Field pea; [4]
  Emergence: 62.8 a
  Yield: 3855 a
Field pea; Optimum seeding, 1995, Radley
  Emergence: 81.3 a
  Yield: 2901 a
Field pea; [5]
  Emergence: 75.5 a
  Yield: 3152 a
Field pea; Optimum seeding, 1996, Radley
  Emergence: 84.7 a
  Yield: 1580 a
